# Source: patent publication US7439418B2, “Anti-microbial peptide known as halocyntin, gene coding for said peptide, vector, transformed organism and composition containing said peptide” (Centre National de la Recherche Scientifique - CNRS, priority 2003, dated 2008)
# Where no end group is shown, it is not given here.
# Legend:
# Assay type in all cases: cell-based
# [1] = system: N. gonorrhoeae; assay: Minimal bactericidal concentration (MBC); settings: Mueller Hinton, 18 hours of incubation
# Protocol: (§1) The minimal bactericidal concentration (MBC) for each bacterial strain tested was determined as follows: The peptide was placed in a solution containing 0.01% acetic acid and 0.2% bovine serum albumin (BSA), then, serial dilutions of 2 in 2 are realized in the same 0.01% solution of acetic acid and 0.2% BSA. 10 μl of each dilution are incubated in sterile 96-well plates (Becton Dickinson, USA, ref: 18572) in the presence of 100 μl of a bacterial suspension brought to an optical density of 0.001 at 600 nm in the Mueller Hinton environment (MHB, SIGMA, ref: M-9677).
# (§2) The bacterial growth is monitored after 18 hours of incubation under agitation. The MBC is determined by spreading out the content of the first three wells in which no bacterial growth was observed. This spreading out was carried out on Petri dishes on which an agar was poured prepared from the Mueller Hinton environment. These dishes were then incubated 18 hours. The MBC corresponds to the lowest concentration of peptide for which no bacterial colony was observed on the incubated dishes.
# [2] = system: E. aerogenes; assay: Minimal bactericidal concentration (MBC); settings: Mueller Hinton, 18 hours of incubation
# Protocol: as §1, §2
# [3] = system: M. luteus; assay: Minimal bactericidal concentration (MBC); settings: Mueller Hinton, 18 hours of incubation
# Protocol: as §1, §2
# [4] = system: K. pneumoniae; assay: Minimal bactericidal concentration (MBC); settings: Mueller Hinton, 18 hours of incubation
# Protocol: as §1, §2
# [5] = system: S. typhimutium; assay: Minimal bactericidal concentration (MBC); settings: Mueller Hinton, 18 hours of incubation
# Protocol: as §1, §2
# [6] = system: E. faecalis; assay: Minimal bactericidal concentration (MBC); settings: Mueller Hinton, 18 hours of incubation
# Protocol: as §1, §2
# [7] = system: E. coli DH5α; assay: Minimal bactericidal concentration (MBC); settings: Mueller Hinton, 18 hours of incubation
# Protocol: as §1, §2
# [8] = system: S. aureus; assay: Minimal bactericidal concentration (MBC); settings: Mueller Hinton, 18 hours of incubation
# Protocol: as §1, §2
# [9] = system: P. aeruginosa; assay: Minimal bactericidal concentration (MBC); settings: Mueller Hinton, 18 hours of incubation
# Protocol: as §1, §2
# [10] = system: A. viridans; assay: Minimal bactericidal concentration (MBC); settings: Mueller Hinton, 18 hours of incubation
# Protocol: as §1, §2
# [11] = system: B. megaterium; assay: Minimal bactericidal concentration (MBC); settings: Mueller Hinton, 18 hours of incubation
# Protocol: as §1, §2
# [12] = system: sheep erythrocytes; assay: Hemolytic activity on sheep erythrocytes
# Protocol: A known quantity of peptide was placed in a solution containing […] acetic acid and 0.2% bovine serum albumin (BSA) in such a manner as to obtain a stock solution with a concentration of […]; then, serial dilutions of this solution were realized in the same solution of 0.01% acetic acid and 0.2% BSA (AA-BSA). […] of each of these solutions or […] of a 10% Triton X-100 solution in PBS (control—peptide) were then added to 180 μl of a solution containing 2.5% (volume/volume) of the suspension of sheep erythrocytes in PBS. The mixture was then incubated 30 minutes at 37° C. then submitted to a centrifugation that 10000 g for 3 minutes. Finally, the supernatant was recovered and its absorbance measured at 600 nm. The percentage of hemolysis is then calculated with the following equation: % hemolysis=(A600 of the sample−A600 of control-peptide)/(A600 control 100% hemolysis−A600 control-peptide)×100.
sequence,measurement,setting,value
FWGHIWNAVKRVGANALHGAVTGALS [halocyntin],MBC,[1],25 to 50 µM
same,MBC,[2],25 to 50 µM
same,MBC,[3],1.56 to 3.13 µM
same,MBC,[4],12.5 to 25 µM
same,MBC,[5],50 to 100 µM
same,MBC,[6],6.25 to 12.5 µM
same,MBC,[7],6.25 to 12.5 µM
same,MBC,[8],6.25 to 12.5 µM
same,MBC,[9],>100 µM
same,MBC,[10],3.13 to 6.25 µM
same,MBC,[11],0.75 to 1.56 µM
same,hemolytic activity,[12]; beyond 12.5 mM,very faint hemolytic activity
same,hemolytic activity,"[12]; concentration of 50 μM, 30 minutes at 37° C.",5.8%
same,hemolytic activity,[12]; up to concentrations of 12.5 mM,does not show any hemolytic activity
